# Laboratory results taken from patent US10513518B2, “Inhibitors of the renal outer medullary potassium channel” (Merck Sharp & Dohme Corp., priority 2015, dated 2019).
# pIC50: −log10 of the molar value.
# Target: hROMK (hKir1.1) (Homo sapiens (Human), UniProt P48048)
# Assay: Thallium Flux Assay (ROMK channel functional thallium flux assay, FLIPR-Tetra)
# Assay type: cell-based
# Details: HEK293 cells stably expressing hROMK (hKir1.1); 30 min incubation with test compound
# Protocol: The following Thallium Flux Assay was performed on each of the final product compounds in the Examples.
# HEK293 cells stably expressing hROMK (hKir1.1) were grown at 37° C. in a 10% CO2 humidified incubator in complete growth media: Dulbecco's Modified Eagle Medium supplemented with non-essential amino acids, Penicillin/Streptomycin/Glutamine, G418 and FBS. At >80% confluency, aspirate the media from the flask and rinse with 10 mL Calcium/Magnesium-free PBS. 5 mL of 1× trypsin (prepared in Ca/Mg Free PBS) was added to a T-225 flask and the flask was returned to the 37° C./CO2 incubator for 2-3 minutes. The cell was dislodged by genitly banging the side of the flask by hand. The cells were titrated completely and then the cells were transferred to 25 mL complete media. The cells were centrifuged at 1,500 rpm for 6 min followed by resuspension in complete growth media and cell concentration was determined. 4E6 cells/T-225 flask attained >80% confluency in 4 days. Under ideal growth conditions and appropriate tissue culture practices, this cell line was stable for 40-45 passages.
# FluxOR Kit Components (Invitrogen F10017)
# • FluxOR™ Reagent (Component A) • FluxOR™ Assay Buffer (Component B)—10× Concentrate • PowerLoad™ Concentrate (Component C)—100× Concentrate • Probenecid (Component D)—Lyophilized sample is kept at −20° C. Water soluble, 100× after solubilization in 1 mL water. Store at 4° C. • FluxOR™ Chloride-free Buffer (Component E)—5× Concentrate • Potassium sulfate (K2SO4) Concentrate (Component F)—125 mM in water. Store at 4° C. • Thallium sulfate (TI2SO4) Concentrate (Component G)—50 mM in water. Store at 4° C. • DMSO (dimethyl sulfoxide, Component H)—1 mL (100%) Reagent Preparation: FluxOR Working Solutions • 1000× FluxOR™ Reagent: Reconstitute a vial of component A in 100 μl DMSO; Mix well; Store 10 μl aliquots at −20° C. • 1× FluxOR™ Assay Buffer: Dilute Component B 10-fold with water; Adjust pH to 7.4 with Hepes/NaOH; Filter and store at 4° C. • Probenecid/Assay Buffer: 100 mL of 1× FluxOR™ Assay Buffer; 1 mL of reconstituted component D; Store at 4° C. • Loading Buffer (per microplate): 10 μl 1000× FluxOR™ Reagent; 100 μl component C; 10 mL Probenecid/Assay Buffer • Compound Buffer (per microplate): 20 mL Probenecid/Assay Buffer; 0.3 mM ouabain (10 mM ouabain in water can be stored in amber bottle/aluminum foil at room temperature); Test compound • 1× FluxOR™ Chloride-Free Buffer: Prepare 1× working solution in water. Can be stored at room temperature • Stimulant Buffer (prepared at 5× final concentration in 1× FluxOR™ Chloride-Free Buffer): 7.5 mM Thallium sulfate and 0.75 mM Potassium sulfate (to give a final assay concentration of 3 mM Thallium/0.3 mM Potassium). Store at 4° C. when not in use. If kept sterile, this solution is good for months. Assay Protocol—
# The ROMK channel functional thallium flux assay was performed in 384 wells, using the FLIPR-Tetra instrument. HEK-hKir1.1 cells were seeded in Poly-D-Lysine microplates and kept in a 37° C.-10% CO2 incubator overnight. On the day of the experiment, the growth media was replaced with the FluxOR™ reagent loading buffer and incubated, protected from light, at ambient temperature (23-25° C.) for 90 min. The loading buffer was replaced with assay buffer±test compound followed by 30 min incubation at ambient temperature, where the Thallium/Potassium stimulant was added to the microplate.
# 1. Seed HEK-hKir1.1 cells (50 μl at 20,000 cells/well) in 384-well PDL coated Microplates
# 2. Allow cells to adhere overnight in humidified 37° C./10% CO2 incubator
# 3. Completely remove cell growth media from microplate and replace with 25 μl loading buffer
# 4. Incubate Microplate at room temperature, protected form light, for 90 min
# 5. Remove loading buffer and replace with 25 μl 1× Assay Buffer±test compound.
# 6. Incubate microplate at room temperature, protected from light, for 30 min
# 7. At FLIPR-Tetra 384: Add stimulant (Thallium/Potassium) solution to microplate and monitor fluorescence. […]
# hROMK (hKir1.1), sequence (P48048 whole entry): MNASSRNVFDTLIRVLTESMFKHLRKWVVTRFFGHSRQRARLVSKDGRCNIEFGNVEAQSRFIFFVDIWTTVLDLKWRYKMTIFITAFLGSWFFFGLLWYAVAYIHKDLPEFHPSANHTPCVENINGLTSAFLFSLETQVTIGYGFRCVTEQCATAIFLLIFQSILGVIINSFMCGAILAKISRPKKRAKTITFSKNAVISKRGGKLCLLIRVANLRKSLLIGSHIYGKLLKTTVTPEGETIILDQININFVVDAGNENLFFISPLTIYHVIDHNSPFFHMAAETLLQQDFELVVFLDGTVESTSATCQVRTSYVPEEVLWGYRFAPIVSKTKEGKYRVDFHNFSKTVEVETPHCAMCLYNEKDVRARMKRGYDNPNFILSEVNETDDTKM
row,Compound,pIC50
1,CC1=C(N2CC3(CCN(C[C@H](O)c4ccc5c(c4C)COC5=O)CC3)CC2=O)CCC1=O [Example 20],6.30
2,CC1=C(N2CCC3(CCN(CC(O)c4cnc(-n5cnnn5)c(F)c4)CC3)C2=O)CCC1=O (centres unmarked) [Example 28],6.53
3,"CC1=C(N2CCC3(CCCN(CC(O)c4ccc(-n5cnnn5)nc4C)CC3)C2=O)CCC1=O (single isomer, unassigned) [Example 3A, 8-(2-hydroxy-2-(2-methyl-6-(1H-tetrazol-1-yl)pyridin-3-yl)ethyl)-2-(2-methyl-3-oxocyclopent-1-en-1-yl)-2,8-diazaspiro[4.6]undecan-1-one]",6.49
4,O=C1C=C(N2CCC3(CCN(CC(O)c4ccc(-n5cnnn5)cc4F)CC3)C2=O)CC1 (centres unmarked) [Example 37],6.34
5,Cc1cc(-n2cnnn2)ccc1C(O)CN1CCC2(CC1)CCN(C1=CC(=O)CC1)C2=O (centres unmarked) [Example 35],6.71
6,"CC1=C(N2CCC3(CCCN(CC(O)c4ccc(-n5cnnn5)nc4C)CC3)C2=O)CCC1=O (single isomer, unassigned) [Example 3B, 8-(2-hydroxy-2-(2-methyl-6-(1H-tetrazol-1-yl)pyridin-3-yl)ethyl)-2-(2-methyl-3-oxocyclopent-1-en-1-yl)-2,8-diazaspiro[4.6]undecan-1-one]",7.06
7,"8(1R,3r,5S)-8-(2-hydroxy-2-(2-methyl-6-(1H-tetrazol-1-yl)60icycle60-3-yl)ethyl)-1′-(2-methyl-3-oxocyclopent-1-en-1-yl)-8-azaspiro[bicyclo[3.2.1]octane-3,3′-pyrrolidin]-2′-one [Example 5]",7.31
8,O=C1C=C(N2CCC3(CCN(C[C@H](O)c4ccc(-n5cnnn5)nc4)CC3)C2=O)CC1 [Example 23],6.73
9,Cc1c([C@@H](O)CN2CCC3(CC2)CCN(C2=CS(=O)(=O)CC2)C3=O)ccc2c1COC2=O [Example 16],6.56
10,CC1=C(N2CCC3(CCCN(C[C@H](O)c4ccc5c(c4C)COC5=O)CC3)C2=O)CCC1=O (some centres unmarked) [Example 40],7.15
11,"(1R,3R,5S)-8-((R)-2-hydroxy-2-(4-methyl-1-oxo-1,3-dihydroisobenzofuran-5-yl)ethyl)-1′-(2-methyl-3-oxocyclopent-1-en-1-yl)-8-azaspiro[bicyclo[3.2.1] octane-3,3′-pyrrolidin]-2′-one [Example 4]",6.32
12,"CC1=C(N2CCC3(CC4CCC(C3)N4CC(O)c3ccc(-n4cnnn4)cn3)C2=O)CCC1=O [Example 6, (1R,3r,5S)-8-(2-(5-(1H-tetrazol-1-yl)pyridin-2-yl)-2-hydroxyethyl)-1′-(2-methyl-3-oxocyclopent-1-en-1-yl)-8-azaspiro[bicyclo[3.2.1]octane-3,3′-pyrrolidin]-2′-one]",6.53
13,CC1=C(N2CCC3(CCN(CC(O)c4ccc(-n5cnnn5)cc4C)CC3)C2=O)CCC1=O (centres unmarked) [Example 26],7.06
14,CC1=C(N2CCC3(CCN(CC(O)c4ccc(-n5cnnn5)nn4)CC3)C2=O)CCC1=O (centres unmarked) [Example 44],7.00
15,Cc1nc(-n2cnnn2)ccc1C(O)CN1CCC2(CC1)CC(=O)N(C1=CS(=O)(=O)CC1)C2 (centres unmarked) [Example 17],6.22
16,"Cc1nc(-n2cnnn2)ccc1C(O)CN1CCC2(CC1)CCN(C1=CS(=O)(=O)CC1)C2=O (single isomer, unassigned) [Example 1, 2-(1,1-dioxido-4,5-dihydrothiophen-3-yl)-8-(2-hydroxy-2-(2-methyl-6-(1H-tetrazol-1-yl)pyridin-3-yl)ethyl)-2,8-diazaspiro[4.5]decan-1-one]",6.19
17,CC1=C(N2CCC3(CCN(C[C@H](O)c4ccc5c(c4C)COC5=O)CC3)C2=O)CCC1=O [Example 19],7.21

# More lines, now with the values ahead:
row,pIC50,Compound
1,7.22,O=C1C=C(N2CCCC3(CCN(CC(O)c4ccc(-n5cnnn5)cn4)CC3)C2=O)CC1 (centres unmarked) [Example 42]
2,7.82,CC1=C(N2CCC3(CCCN(C[C@H](O)c4ccc5c(c4C)COC5=O)CC3)C2=O)CCC1=O (some centres unmarked) [Example 39]
3,6.41,CC1=C(N2CCC3(CCN(CC(O)c4ncc(-n5cnnn5)cc4C)CC3)C2=O)CCC1=O (centres unmarked) [Example 24]
4,7.06,Cc1nc(-n2cnnn2)ccc1C(O)CN1CCC2(CC1)CCN(C1=CC(=O)CC1)C2=O (centres unmarked) [Example 14]
5,6.12,O=C1C=C(N2CCC3(CCN(CC(O)c4cnc(-n5cnnn5)c(F)c4)CC3)C2=O)CC1 (centres unmarked) [Example 31]
6,6.17,CC1=C(N2CCC3(CCN(CC(O)c4cnc(-n5cnnn5)c(F)c4)CC3)C2=O)CCC1=O (centres unmarked) [Example 29]
7,6.28,Cc1c([C@@H](O)CN2CCC3(CC2)CC(=O)N(C2=CC(=O)CC2)C3)ccc2c1COC2=O [Example 12]
8,7.13,CC1=C(N2CCC3(CCN(CC(O)c4ccc(-n5cnnn5)cc4C)CC3)C2=O)CCC1=O (centres unmarked) [Example 27]
9,6.92,Cc1c([C@@H](O)CN2CCC3(CC2)CCN(C2=CC(=O)CC2)C3=O)ccc2c1COC2=O [Example 11]
10,6.38,O=C1C=C(N2CCC3(CCN(CC(O)c4cnc(-n5cnnn5)c(F)c4)CC3)C2=O)CC1 (centres unmarked) [Example 30]
11,7.96,Cc1c([C@@H](O)CN2CCC3(CCCN(C4=CC(=O)CC4)C3=O)CC2)ccc2c1COC2=O [Example 34]
12,6.94,O=C1N(C2=CS(=O)(=O)CC2)CCC12CCN(C[C@H](O)c1ccc(-n3cnnn3)nc1)CC2 [Example 22]
13,7.25,Cc1nc(-n2cnnn2)ccc1C(O)CN1CCC2(CC1)CCN(C1=CS(=O)(=O)CC1)C2=O (centres unmarked) [Example 15]
14,6.05,CC1=C(N2CCOC3(CCN(C[C@H](O)c4ccc5c(c4C)COC5=O)CC3)C2=O)CCC1=O [Example 45]
15,6.25,CC1=C(N2CCC3(CCCN(CC(O)c4ccc(-n5cnnn5)nn4)CC3)C2=O)CCC1=O (centres unmarked) [Example 43]
16,6.93,CC1=C(N2CCC3(CCN(C[C@H](O)c4ccc(-n5cnnn5)nc4)CC3)C2=O)CCC1=O [Example 21]
17,6.19,CC1=C(N2CCCC3(CCN(CC(O)c4ccc(-n5cnnn5)nc4C)CC3)C2=O)CCC1=O (centres unmarked) [Example 32]
18,7.97,Cc1cc(-n2cnnn2)ccc1C(O)CN1CCC2(CCCN(C3=CC(=O)CC3)C2=O)CC1 (centres unmarked) [Example 41]
19,6.27,CC1=C(N2CCC3(CCN(CC(O)c4ccc(-n5cnnn5)cc4F)CC3)C2=O)CCC1=O (centres unmarked) [Example 36]
20,7.76,Cc1nc(-n2cnnn2)ccc1C(O)CN1CCC2(CCCN(C3=CC(=O)CC3)C2=O)CC1 (centres unmarked) [Example 33]
21,6.46,CC1=C(N2CCC3(CCN(CC(O)c4ncc(-n5cnnn5)cc4C)CC3)C2=O)CCC1=O (centres unmarked) [Example 25]
22,6.45,Cc1nc(-n2cnnn2)ccc1C(O)CN1CCC2(CC1)CC(=O)N(C1=CC(=O)CC1)C2 (centres unmarked) [Example 13]
23,7.32,CC1=C(N2CCC3(CCN(CC(O)c4ccc(-n5cnnn5)nc4C)CC3)C2=O)CCC1=O (centres unmarked) [Example 18]
24,7.05,Cc1nc(-n2cnnn2)ccc1C(O)CN1CCC2(CCCN(C3=CS(=O)(=O)CC3)C2=O)CC1 (centres unmarked) [Example 38]
